Assay results as given in patent US11000033B2, “Ketone or oxime compound, and herbicide” (NISSAN CHEMICAL CORPORATION, priority 2014, dated 2021).

Columns and labels:
Assay type in all cases: in vivo
[1] = test system: Echinochloa oryzacola Vasing.; assay: Test Example 2: herbicidal activity, application during weed generation in submerged conditions (symbol A); conditions: Table 23; application herbicide amount 320 g/ha; grade 0-5 by criteria of Test Example 1
Procedure: (§1) Herbicidal Activity Test by Application During Weed Generation in Submerged Conditions
(§2) After alluvial soil was placed into 1/10000 are of Wagner pot, water was poured and mixed to form a submerged condition having a water depth of 4 cm. Seeds of Echinochloa oryzacola Vasing., Scirpus juncoides, and Monochoria vaginalis were sowed in a mixed manner in the above pot and the pot was placed in the greenhouse of 25° C. to 30° C. to grow the plants. When Echinochloa oryzacola Vasing., Scirpus juncoides, and Monochoria vaginalis were grown to one leaf stage to two leaf stage, the emulsion agent of the compound of the present invention prepared in accordance with Formulation Example 2 was diluted with water so as to be a predetermined herbicide amount and the diluted emulsion agent was applied to the surface of the water. 3 weeks later from the herbicide application, the effect to each plant was investigated in accordance with the criteria of Test Example 1.

Scirpus juncoides [2] = assay: Test Example 2: herbicidal activity, application during weed generation in submerged conditions (symbol B); conditions: Table 23; application herbicide amount 320 g/ha; grade 0-5 by criteria of Test Example 1
Procedure: as §1, §2

Monochoria vaginalis [3] = assay: Test Example 2: herbicidal activity, application during weed generation in submerged conditions (symbol C); conditions: Table 23; application herbicide amount 320 g/ha; grade 0-5 by criteria of Test Example 1
Procedure: as §1, §2

[4] = test system: Echinochloa crus-galli var. crus-galli; assay: Test Example 3: herbicidal effect by foliage application, Wagner pot (symbol H); conditions: application herbicide amount 320 g/ha
Procedure, shortened: (§3)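 Herbicidal activity was rated three weeks after a foliar spray of diluted emulsion concentrate, applied at a predetermined dose to plants grown for 14 days from seed in waterlogged alluvial soil within a 25–30 °C greenhouse.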

Leptochloa chinensis = assay: Test Example 3: herbicidal effect by foliage application, Wagner pot (symbol D); conditions: application herbicide amount 320 g/ha
Procedure, shortened: as §3

Cyperus difformis = assay: Test Example 3: herbicidal effect by foliage application, Wagner pot (symbol E); conditions: application herbicide amount 320 g/ha
Procedure, shortened: as §3

[5] = test system: directly sowed rice plant; assay: Test Example 3: effect on crop by foliage application, Wagner pot (symbol b); conditions: application herbicide amount 320 g/ha
Procedure, shortened: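 Steps: fill a 1/10000-are Wagner pot with alluvial soil; add water and mix to submerge at 0.1–0.5 cm depth; sow rice plus Echinochloa crus-galli var. crus-galli, Leptochloa chinensis and Cyperus difformis; grow in a 25–30 °C greenhouse.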

Digitaria ciliaris = assay: Test Example 5: herbicidal effect by foliage application, plastic box (symbol F); conditions: 320 g/ha, 3 weeks after application
Procedure, shortened: (§4)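 Sowing in sterilized diluvial soil, 14 days' greenhouse growth at 25° C. to 30° C., then uniform small-sprayer foliar application of aqueous emulsion dilution; plants scored three weeks afterwards.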

Setaria viridis = assay: Test Example 5: herbicidal effect by foliage application, plastic box (symbol G); conditions: 320 g/ha, 3 weeks after application
Procedure, shortened: as §4

[6] = test system: Echinochloa crus-galli var. crus-galli; assay: Test Example 5: herbicidal effect by foliage application, plastic box (symbol H); conditions: 320 g/ha, 3 weeks after application
Procedure, shortened: as §4

Avena fatua = assay: Test Example 5: herbicidal effect by foliage application, plastic box (symbol I); conditions: 320 g/ha, 3 weeks after application
Procedure, shortened: as §4

Alopecurus myosuroides = assay: Test Example 5: herbicidal effect by foliage application, plastic box (symbol J); conditions: 320 g/ha, 3 weeks after application
Procedure, shortened: as §4

Lolium multiflorum Lam. = assay: Test Example 5: herbicidal effect by foliage application, plastic box (symbol K); conditions: 320 g/ha, 3 weeks after application
Procedure, shortened: as §4

Apera spica-venti = assay: Test Example 5: herbicidal effect by foliage application, plastic box (symbol L); conditions: 320 g/ha, 3 weeks after application
Procedure, shortened: as §4

Abutilon theophrasti = assay: Test Example 5: herbicidal effect by foliage application, plastic box (symbol M); conditions: 320 g/ha, 3 weeks after application
Procedure, shortened: as §4

Amaranthus retroflexus = assay: Test Example 5: herbicidal effect by foliage application, plastic box (symbol N); conditions: 320 g/ha, 3 weeks after application
Procedure, shortened: as §4

Chenopodium album = assay: Test Example 5: herbicidal effect by foliage application, plastic box (symbol O); conditions: 320 g/ha, 3 weeks after application
Procedure, shortened: as §4

Stellaria media = assay: Test Example 5: herbicidal effect by foliage application, plastic box (symbol P); conditions: 320 g/ha, 3 weeks after application
Procedure, shortened: as §4

Galium spurium = assay: Test Example 5: herbicidal effect by foliage application, plastic box (symbol Q); conditions: 320 g/ha, 3 weeks after application
Procedure, shortened: as §4

Veronica persica = assay: Test Example 5: herbicidal effect by foliage application, plastic box (symbol R); conditions: 320 g/ha, 3 weeks after application
Procedure, shortened: as §4

corn = assay: Test Example 5: effect on crop by foliage application, plastic box (symbol c); conditions: 320 g/ha, 3 weeks after application
Procedure, shortened: (§5)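 Soil: sterilized diluvial. Container: plastic box, 21 × 13 cm, 7 cm deep. Sowing: spot-like, ~1.5 cm cover. Growth: greenhouse, 25° C. to 30° C.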

soybean = assay: Test Example 5: effect on crop by foliage application, plastic box (symbol d); conditions: 320 g/ha, 3 weeks after application
Procedure, shortened: as §5

rice plant = assay: Test Example 5: effect on crop by foliage application, plastic box (symbol b); conditions: 320 g/ha, 3 weeks after application
Procedure, shortened: as §5

wheat = assay: Test Example 5: effect on crop by foliage application, plastic box (symbol e); conditions: 320 g/ha, 3 weeks after application
Procedure, shortened: as §5

beet = assay: Test Example 5: effect on crop by foliage application, plastic box (symbol f); conditions: 320 g/ha, 3 weeks after application
Procedure, shortened: as §5

rapeseed = assay: Test Example 5: effect on crop by foliage application, plastic box (symbol g); conditions: 320 g/ha, 3 weeks after application
Procedure, shortened: as §5

[7] = test system: Echinochloa oryzacola Vasing.; assay: Test Example 1: herbicidal activity, application before weed generation in submerged conditions (symbol A); conditions: application herbicide amount 320 g/ha
Procedure, shortened: (§6)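 Flooded alluvial soil (4 cm water) was mixed-sown with the three weed species, and 2.5-leaf rice seedlings were transplanted. On sowing day, a water-diluted emulsion at a predetermined rate was applied to the water surface. After 3 weeks in a 25–30 °C greenhouse, effect was scored 0–5.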

Scirpus juncoides [8] = assay: Test Example 1: herbicidal activity, application before weed generation in submerged conditions (symbol B); conditions: application herbicide amount 320 g/ha
Procedure, shortened: as §6

Monochoria vaginalis [9] = assay: Test Example 1: herbicidal activity, application before weed generation in submerged conditions (symbol C); conditions: application herbicide amount 320 g/ha
Procedure, shortened: as §6

transplanted rice plant = assay: Test Example 1: effect on crop, application before weed generation in submerged conditions (symbol a); conditions: application herbicide amount 320 g/ha
Procedure, shortened: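 Alluvial soil pots flooded to 4 cm water, sown with Echinochloa oryzacola, Scirpus juncoides and Monochoria vaginalis, then transplanted with 2.5 leaf stage rice seedlings; pre-emergence application. Greenhouse 25° C. to 30° C.; scored 0–5 by herbicidal ratio 3 weeks after application.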

| SMILES | Herbicidal effect grade, A: Echinochloa oryzacola Vasing. [1] | Herbicidal effect grade, B: Scirpus juncoides (Scirpus juncoides [2]) | Herbicidal effect grade, C: Monochoria vaginalis (Monochoria vaginalis [3]) | herbicidal effect on H (Echinochloa crus-galli var. crus-galli), grade 0-5 [4] | herbicidal effect on D (Leptochloa chinensis), grade 0-5 (Leptochloa chinensis) | effect on crop b (directly sowed rice plant), grade 0-5 [5] | F: Digitaria ciliaris, herbicidal effect grade (Digitaria ciliaris) | G: Setaria viridis, herbicidal effect grade (Setaria viridis) | H: Echinochloa crus-galli var. crus-galli, herbicidal effect grade [6] | I: Avena fatua, herbicidal effect grade (Avena fatua) | J: Alopecurus myosuroides, herbicidal effect grade (Alopecurus myosuroides) | K: Lolium multiflorum Lam., herbicidal effect grade (Lolium multiflorum Lam.) | L: Apera spica-venti, herbicidal effect grade (Apera spica-venti) | M: Abutilon theophrasti, herbicidal effect grade (Abutilon theophrasti) | N: Amaranthus retroflexus, herbicidal effect grade (Amaranthus retroflexus) | O: Chenopodium album, herbicidal effect grade (Chenopodium album) | P: Stellaria media, herbicidal effect grade (Stellaria media) | Q: Galium spurium, herbicidal effect grade (Galium spurium) | R: Veronica persica, herbicidal effect grade (Veronica persica) | c: corn, effect on crop grade (corn) | also measured |
| --- | --- | --- | --- | --- | --- | --- | --- | --- | --- | --- | --- | --- | --- | --- | --- | --- | --- | --- | --- | --- | --- |
| CON=C(C)CC1CC(O)=C(c2c(C)cc(C#CC(C)(C)O)cc2C)C1=O (mixture of isomers) [6-036] | 3 (Herbicidal ratio of 40% or higher and lower than 70%) | 0 (Herbicidal ratio of 5% or lower (almost no effect)) | 0 (Herbicidal ratio of 5% or lower (almost no effect)) | 4 (Herbicidal ratio of 70% or higher and lower than 90%) | 5 (Herbicidal ratio of 90% or more (almost completely withered)) | 4 (Herbicidal ratio of 70% or higher and lower than 90%) | 4 (Herbicidal ratio of 70% or higher and lower than 90%) | 4 (Herbicidal ratio of 70% or higher and lower than 90%) | 5 (Herbicidal ratio of 90% or more (almost completely withered)) | 3 (Herbicidal ratio of 40% or higher and lower than 70%) | 3 (Herbicidal ratio of 40% or higher and lower than 70%) | 5 (Herbicidal ratio of 90% or more (almost completely withered)) | 3 (Herbicidal ratio of 40% or higher and lower than 70%) | 0 (Herbicidal ratio of 5% or lower (almost no effect)) | 0 (Herbicidal ratio of 5% or lower (almost no effect)) | 0 (Herbicidal ratio of 5% or lower (almost no effect)) | 1 (Herbicidal ratio of 5% or higher and lower than 20%) | 0 (Herbicidal ratio of 5% or lower (almost no effect)) | 3 (Herbicidal ratio of 40% or higher and lower than 70%) | 4 (Herbicidal ratio of 70% or higher and lower than 90%) | herbicidal effect on E, grade 0-5 (Cyperus difformis): 3 (Herbicidal ratio of 40% or higher and lower than 70%); d: soybean, effect on crop grade (soybean): 0 (Herbicidal ratio of 5% or lower (almost no effect)); b: directly sowed rice plant, effect on crop grade (rice plant): 4 (Herbicidal ratio of 70% or higher and lower than 90%); e: wheat, effect on crop grade (wheat): 0 (Herbicidal ratio of 5% or lower (almost no effect)); f: beet, effect on crop grade (beet): 0 (Herbicidal ratio of 5% or lower (almost no effect)); g: rapeseed, effect on crop grade (rapeseed): 3 (Herbicidal ratio of 40% or higher and lower than 70%) |
| CON=C(C)CC1CC(OCC(Cl)=CCl)=C(c2c(C)cc(C)cc2C)C1=O (stereo not shown) [1-166] | 3 (Herbicidal ratio of 40% or higher and lower than 70%) | 0 (Herbicidal ratio of 5% or lower (almost no effect)) | 0 (Herbicidal ratio of 5% or lower (almost no effect)) | 4 (Herbicidal ratio of 70% or higher and lower than 90%) | 4 (Herbicidal ratio of 70% or higher and lower than 90%) | 3 (Herbicidal ratio of 40% or higher and lower than 70%) | 1 (Herbicidal ratio of 5% or higher and lower than 20%) | 1 (Herbicidal ratio of 5% or higher and lower than 20%) | 4 (Herbicidal ratio of 70% or higher and lower than 90%) | 5 (Herbicidal ratio of 90% or more (almost completely withered)) | 4 (Herbicidal ratio of 70% or higher and lower than 90%) | 5 (Herbicidal ratio of 90% or more (almost completely withered)) | 5 (Herbicidal ratio of 90% or more (almost completely withered)) | 3 (Herbicidal ratio of 40% or higher and lower than 70%) | 0 (Herbicidal ratio of 5% or lower (almost no effect)) | 0 (Herbicidal ratio of 5% or lower (almost no effect)) | 0 (Herbicidal ratio of 5% or lower (almost no effect)) | 0 (Herbicidal ratio of 5% or lower (almost no effect)) | 0 (Herbicidal ratio of 5% or lower (almost no effect)) | 1 (Herbicidal ratio of 5% or higher and lower than 20%) | Herbicidal effect grade, A: Echinochloa oryzacola Vasing. [7]: 5 (Herbicidal ratio of 90% or more (almost completely withered)); Herbicidal effect grade, B: Scirpus juncoides (Scirpus juncoides [8]): 0 (Herbicidal ratio of 5% or lower (almost no effect)); Herbicidal effect grade, C: Monochoria vaginalis (Monochoria vaginalis [9]): 0 (Herbicidal ratio of 5% or lower (almost no effect)); Effect grade on crop, a: transplanted rice plant (transplanted rice plant): 0 (Herbicidal ratio of 5% or lower (almost no effect)); d: soybean, effect on crop grade (soybean): 1 (Herbicidal ratio of 5% or higher and lower than 20%); b: directly sowed rice plant, effect on crop grade (rice plant): 3 (Herbicidal ratio of 40% or higher and lower than 70%); e: wheat, effect on crop grade (wheat): 1 (Herbicidal ratio of 5% or higher and lower than 20%); f: beet, effect on crop grade (beet): 0 (Herbicidal ratio of 5% or lower (almost no effect)); g: rapeseed, effect on crop grade (rapeseed): 4 (Herbicidal ratio of 70% or higher and lower than 90%) |
